Measured values taken from patent US20260166045A1, “COMBINATION THERAPY COMPRISING GSPT1-DIRECTED MOLECULAR GLUE DEGRADERS AND PI3K/AKT/mTOR PATHWAY INHIBITORS” (Monte Rosa Therapeutics, Inc., priority 2022, published 2026).
“And” between values parts separate entries of the source, which are not always exact repeats. Equal entries are not always repeated.

Legend:
Assay in all cases: CellTiter-Glo 2.0 cell viability, 7x7 combination dose response matrix, synergy scoring
Format in all cases: cell-based
MCF7 cell line = system: MCF7 cell line
From the text: (§1) A study was undertaken to determine whether the combination of a GSPT1-directed MGD and an inhibitor of the PI3K/AKT/mTOR pathway could be effective in killing cancer cells and whether certain combination could elicit a greater than additive effect on cell killing.
(§2) FIG. 1 is a flow diagram of the method used to assess cancer cell killing by a combination of a GSPT1-directed MGD and an inhibitor of the PI3K/AKT/mTOR pathway. Certain of the materials and equipment used in the studies are presented in Table 3 and the cell lines used are presented in Table 4.
(§3) All assays were run in triplicate. Each 384-well plate accommodated six 7×7 dose response matrices (FIG. 2). All compound handling was performed using an Echo 650 Series Acoustic Liquid Handler, which enables fully automated, precise, contact-free acoustic transfer in volumes as low as 2.5 nL.
(§4) The following protocol was used for cell plating: • 1. Warm media to room temperature or 37° C. • 2. Prepare complete phenol-free media by adding 10% FBS+1% Pen-Strep to RPMI 1640 Medium or DMEM. • 3. Aspirate media from T175 tissue culture flask and rinse with 10 ml PBS. • 4. Aspirate PBS and add 2 mL 0.25% trypsin. Incubate the flask at 37° C. for 5 min or until cells are detached. • 5. Add 10 mL complete media to the flask to neutralize the trypsin, then collect cells in a 50 mL conical tube. • 6. Centrifuge cells at 300 g for 5 min. Aspirate media and suspend cell pellet in fresh media. Use cell strainer to strain cells into a new 50 mL conical tube. • 7. […] Mix 100 uL cell suspension with 100 uL trypan blue (1:1) and pipette 20 μL of the mixture into each of 2 counting chambers on a slide. Insert slide. • b. Adjust focus and record the live cell count. At least 2 independent measurements should be taken. […] Cell viability should be greater than 90%. […] Dilute cell suspension to the desired concentration (20000 cells/mL) using complete phenol-free media. Prepare 10 mL cell suspension per plate+an extra 10 mL for priming the liquid handler. • 9. Dispense cells into 384-well plates using the liquid handler at 25 uL/well (500 cells/well). 3 plates should be prepared per compound plate to be treated. • 10. Cells should be dispensed into columns 1-23 only. Media only (no cells) should be dispensed into column 24. • 11. Allow plates to rest at RT for 30 minutes before transferring to the incubator. Incubate cells overnight at 37° C., 95% humidity, and 5% CO2.
(§5) Compound plates were prepared as follows using an Echo 650 Series Acoustic Liquid Handler. • 1. A compound plate containing 7-point dose responses of each compound to be treated is first prepared from stock compounds. • 2. The cell plates are treated with compounds according to the following maps, where the first compound is added across all six 7 by 7 dose response matrices, and its concentration varies by row (FIG. 2; top matrix), whereas the second compound varies for each dose response matrix, and its concentration varies by column (FIG. 2; bottom matrix). Each cell plate receives one Compound A and six different Compound Bs. • 3. To prepare a compound plate, 384-well PP plate with stock compounds (highest concentration) is prepared. Compounds are diluted 1:1000 in the cell plates, e.g. 10 mM on compound plate will be 10 uM on cell plate. A 384-well LDV plate with pre-determined volumes of DMSO is prepared. Echo is used to dilute stock compounds from PP plate into LDV plate to prepare 7-point dose responses.
(§6) Compounds were added to the cells and cell viability was measured after 72 hour incubation using CellTiter-Glo 2.0 Cell Viability Assay (Promega): • 1. For a compound addition, Echo is used to transfer 25 nL from the compound plate wells to the cell plates according to the plate maps shown in FIG. 2. Cell plates are treated in triplicate. Each well of the cell plate has 25 uL media (1:1000 dilution). Incubate cells post-treatment at 37° C., 95% humidity, and 5% CO2 for 72 hrs (step 106). • 2. […]

MDA-MB-231 cell line = system: MDA-MB-231 cell line
From the text: as §1, §2, §3, §4, §5, §6

ABC-1 cell line = system: ABC-1 cell line
From the text: as §1, §2, §3, §4, §5, §6

MDA-MB-157 cell line = settings: first compound 0.41-100 nM
From the text: as §1, §2, §3, §4, §5, §6

CAL51 cell line = settings: CAL51
From the text: as §1, §2, §3, §4, §5, §6

[1] = MCF7, combined with Alpelisib 41-10000 nM, first compound 0.41-33.33 nM
[2] = MCF7, combined with Capivasertib 41-10000 nM, first compound 0.41-100 nM
[3] = MCF7, combined with Everolimus 41-10000 nM, first compound 0.41-100 nM
[4] = MCF7, combined with GNE-477 41-10000 nM, first compound 0.41-100 nM
[5] = MCF7, combined with HS173 41-10000 nM, first compound 0.41-100 nM
[6] = MCF7, combined with KU-0063794 41-10000 nM, first compound 0.41-100 nM
[7] = MCF7, combined with M2698 41-10000 nM, first compound 0.41-100 nM
[8] = MCF7, combined with Serabelisib 41-10000 nM, first compound 0.41-100 nM
[9] = MDA-MB-231, combined with Alpelisib 41-10000 nM, first compound 0.41-100 nM
[10] = MDA-MB-231, combined with Capivasertib 41-10000 nM, first compound 0.41-100 nM
[11] = MDA-MB-231, combined with Everolimus 41-10000 nM, first compound 0.41-100 nM
[12] = MDA-MB-231, combined with GNE-477 41-10000 nM, first compound 0.41-100 nM
[13] = MDA-MB-231, combined with KU-0063794 41-10000 nM, first compound 0.41-100 nM
[14] = ABC-1, combined with Alpelisib 21-10000 nM, first compound 0.21-100 nM
[15] = ABC-1, combined with Capivasertib 21-10000 nM, first compound 0.21-100 nM
[16] = ABC-1, combined with Everolimus 2.1-1000 nM, first compound 0.21-100 nM
[17] = ABC-1, combined with GNE-477 21-10000 nM, first compound 0.21-100 nM
[18] = ABC-1, combined with KU-0063794 21-10000 nM, first compound 0.21-100 nM
[19] = ABC-1, combined with M2698 21-10000 nM, first compound 0.21-100 nM
[20] = combined with Alpelisib 41-10000 nM
[21] = combined with Capivasertib 41-10000 nM
[22] = combined with Everolimus 41-10000 nM
[23] = combined with GNE-477 41-10000 nM
[24] = combined with KU-0063794 41-10000 nM
[25] = combined with Alpelisib 41-10000 nM, first compound 0.41-33.33 nM
[26] = combined with Alpelisib 41-10000 nM, first compound 0.41-100 nM
[27] = combined with Everolimus 41-10000 nM, first compound 0.41-100 nM
[28] = combined with GNE-477 41-10000 nM, first compound 0.41-100 nM
[29] = combined with HS173 41-10000 nM, first compound 0.41-100 nM
[30] = combined with KU-0063794 41-10000 nM, first compound 0.41-100 nM
[31] = combined with M2698 41-10000 nM, first compound 0.41-100 nM
[32] = combined with Serabelisib 41-10000 nM, first compound 0.41-100 nM

## Cc1ccc(NC(=O)OCc2ccc3c(c2)C(=O)N(C2CCC(=O)NC2=O)C3)cc1Cl (stereo not drawn) [Compound 1-6, [2-(2,6-dioxopiperidin-3-yl)-3-oxo-2,3-dihydro-1H-isoindol-5-yl]methyl N-(3-chloro-4-methylphenyl)carbamate]
MCF7 cell line; [1]
  Mean Bliss synergy score: 3.23
  Mean Loewe synergy score: 9.38
MCF7 cell line; MCF7, combined with Alpelisib 41-10000 nM, first compound 0.41-100 nM
  Mean Loewe synergy score: 10.18 and 8.52
MCF7 cell line; [2]
  Mean Bliss synergy score: 14.01 and 11.86
  Mean Loewe synergy score: 12.75 and 11.61
MCF7 cell line; [3]
  Mean Bliss synergy score: 10.05
  Mean Loewe synergy score: 17.80
MCF7 cell line; [4]
  Mean Bliss synergy score: 0.14
  Mean Loewe synergy score: 6.12
MCF7 cell line; [5]
  Mean Bliss synergy score: 0.74
  Mean Loewe synergy score: 3.72
MCF7 cell line; [6]
  Mean Bliss synergy score: 5.02
  Mean Loewe synergy score: 9.44
MCF7 cell line; [7]
  Mean Bliss synergy score: 2.92 and 3.60
  Mean Loewe synergy score: 10.25 and 9.07
MCF7 cell line; [8]
  Mean Bliss synergy score: 4.69
  Mean Loewe synergy score: 4.49
MCF7 cell line; combined with Capivasertib, MCF7 cell line (printed in Example 5, lung cancer cell lines), mean across dose response matrix, 72 hrs
  Mean Loewe synergy score: 16.02
MCF7 cell line; combined with KU-0063794 (41 nM to 10 uM), MCF7 cell line, mean across dose response matrix, 72 hrs
  Mean Loewe synergy score: 9.44
MDA-MB-231 cell line; [9]
  Mean Bliss synergy score: 1.80
  Mean Loewe synergy score: 5.93
MDA-MB-231 cell line; [10]
  Mean Bliss synergy score: 5.75
  Mean Loewe synergy score: 7.02
MDA-MB-231 cell line; [11]
  Mean Bliss synergy score: 8.98
  Mean Loewe synergy score: 11.33
MDA-MB-231 cell line; [12]
  Mean Bliss synergy score: 2.23
  Mean Loewe synergy score: 5.29
MDA-MB-231 cell line; [13]
  Mean Bliss synergy score: 3.19
  Mean Loewe synergy score: 6.78
MDA-MB-231 cell line; MDA-MB-231, combined with M2698 41-10000 nM, first compound 0.41-100 nM
  Mean Loewe synergy score: 4.77 and 5.02
MDA-MB-231 cell line; combined with Everolimus (41 nM to 10 uM), MDA-MB-231 cell line, mean across dose response matrix, 72 hrs
  Mean Bliss synergy score: 8.98
ABC-1 cell line; [14]
  Mean Bliss synergy score: 20.25
  Mean Loewe synergy score: 11.94
ABC-1 cell line; [15]
  Mean Bliss synergy score: 33.20
  Mean Loewe synergy score: 16.0
ABC-1 cell line; [16]
  Mean Bliss synergy score: 26.31
  Mean Loewe synergy score: 19.39
ABC-1 cell line; [17]
  Mean Bliss synergy score: 20.34
  Mean Loewe synergy score: 7.13
ABC-1 cell line; [18]
  Mean Bliss synergy score: 19.44
  Mean Loewe synergy score: 7.24
ABC-1 cell line; [19]
  Mean Bliss synergy score: 17.02
  Mean Loewe synergy score: 8.75
ABC-1 cell line; combined with Everolimus (2.1 nM to 1 uM), ABC-1 cell line, mean across dose response matrix, 72 hrs
  Mean Bliss synergy score: 26.31
MDA-MB-157 cell line; [20]
  Mean Bliss synergy score: 1.84
  Mean Loewe synergy score: 3.29
MDA-MB-157 cell line; [21]
  Mean Bliss synergy score: 6.73
  Mean Loewe synergy score: 5.04
MDA-MB-157 cell line; [22]
  Mean Bliss synergy score: 4.15
  Mean Loewe synergy score: 9.01
MDA-MB-157 cell line; [23]
  Mean Bliss synergy score: 0.86
  Mean Loewe synergy score: 4.66
MDA-MB-157 cell line; [24]
  Mean Bliss synergy score: 1.22
  Mean Loewe synergy score: 5.42
MDA-MB-157 cell line; combined with M2698 41-10000 nM
  Mean Loewe synergy score: 5.62 and 4.44
CAL51 cell line; [25]
  Mean Bliss synergy score: 4.15
  Mean Loewe synergy score: 7.89
CAL51 cell line; [26]
  Mean Bliss synergy score: 13.06 and 19.57
  Mean Loewe synergy score: 11.36 and 7.04
CAL51 cell line; combined with Capivasertib 41-10000 nM, first compound 0.41-100 nM
  Mean Bliss synergy score: 24.03 and 20.68
CAL51 cell line; [27]
  Mean Bliss synergy score: 20.31
  Mean Loewe synergy score: 22.83
CAL51 cell line; [28]
  Mean Bliss synergy score: 5.80
  Mean Loewe synergy score: 6.34
CAL51 cell line; [29]
  Mean Bliss synergy score: 4.98
  Mean Loewe synergy score: 1.89
CAL51 cell line; [30]
  Mean Bliss synergy score: 12.93
  Mean Loewe synergy score: 8.26
CAL51 cell line; [31]
  Mean Bliss synergy score: 11.87 and 11.78
  Mean Loewe synergy score: 12.09 and 12.43
CAL51 cell line; [32]
  Mean Bliss synergy score: 4.74
  Mean Loewe synergy score: 0.94
